Like-named read-outs stand apart in the source and are kept apart here.
Columns and labels:
[1] = system: mono-methyl arginine in RKO cells; assay: RKO Methylation Assay, In Cell Western (ICW) for mono-methyl arginine and DNA content; format: cell-based; details: for EC30: Homo sapiens, RKO, 72 h; for EC30 (In Cell Western data): class symbols
Summary of the method: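 RKO cells treated with compound for 72 hours at 37 °C, then methanol-fixed and stained overnight at 4 °C with anti-mono-methyl arginine antibody, plus DRAQ5 for DNA. Signal ratio from 700 and 800 nm infrared scans normalized to DMSO (minimum) and 20 μM reference compound (maximum); EC30 from triplicate curves.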

human PRMT1 = target: T1, human PRMT1 (Homo sapiens, UniProt Q99873); assay: PRMT1 Biochemical Assay (3H-SAM Flashplate, peptide substrate); details: single experiment or average of multiple experiments
T1 construct: GST-tagged PRMT1; made in house; host or cells: High Five insect cells (baculovirus)
Summary of the method: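 GST-tagged PRMT1 from baculovirus-infected cells, preincubated with compounds 30 min at room temperature in 20 mM Bicine pH 7.6, 1 mM TCEP, 0.005% BSG, 0.002% Tween 20. Reaction started with ³H-SAM plus biotinylated peptide, stopped with 300 µM cold SAM.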

[2] = RKO cells, 72 hours, mono-methyl arginine, percent activation, single experiment or average of multiple experiments, read-out: EC30 (In Cell Western data, Numerical)
[3] = read-out: EC30 (In Cell Western data, Numerical, μM)
[4] = RKO cells, 72 hours, mono-methyl arginine, percent activation

T1 sequence (Q99873 with tags, fused parts or gaps): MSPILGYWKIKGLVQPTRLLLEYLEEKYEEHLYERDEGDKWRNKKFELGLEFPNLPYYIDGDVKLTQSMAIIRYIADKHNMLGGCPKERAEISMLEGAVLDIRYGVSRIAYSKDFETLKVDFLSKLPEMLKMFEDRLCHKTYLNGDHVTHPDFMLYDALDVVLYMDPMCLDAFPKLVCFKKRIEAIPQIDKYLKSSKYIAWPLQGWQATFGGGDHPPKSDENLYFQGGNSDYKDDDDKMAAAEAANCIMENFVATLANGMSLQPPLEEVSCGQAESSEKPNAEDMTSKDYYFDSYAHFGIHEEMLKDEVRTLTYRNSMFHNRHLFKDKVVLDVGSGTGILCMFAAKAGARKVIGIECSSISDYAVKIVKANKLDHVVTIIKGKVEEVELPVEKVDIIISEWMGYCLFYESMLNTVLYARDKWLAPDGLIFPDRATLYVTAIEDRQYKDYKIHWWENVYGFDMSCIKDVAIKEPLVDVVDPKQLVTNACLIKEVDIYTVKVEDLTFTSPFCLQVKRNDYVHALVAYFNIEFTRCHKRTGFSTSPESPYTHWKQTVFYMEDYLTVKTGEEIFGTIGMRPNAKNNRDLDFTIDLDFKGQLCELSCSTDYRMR

SMILES	IC50 (human PRMT1)	EC30 [1, 2]	also measured
CN(CCN)Cc1c[nH]nc1-c1ccc(F)cc1 [Compound 1]	–	7.4 µM	–
CN(CCN)Cc1cnn(C)c1-c1ccc(F)cc1 [Compound 4]	152 nM	–	EC30 [1, 3]: 12.1 µM
CNCCN(C)Cc1c[nH]nc1-c1cccc(N)c1 [Compound 32]	–	–	EC30 (In Cell Western data) [1, 4]: C (“C” indicates an EC30 ≧ 12.01 μM)
CNCCN(C)Cc1c[nH]nc1-c1ccc(CC#N)cc1 [Compound 34]	–	–	EC30 (In Cell Western data) [1, 4]: C (“C” indicates an EC30 ≧ 12.01 μM)
CNCCN(C)Cc1c[nH]nc1-c1ccccc1O [Compound 35]	–	–	EC30 (In Cell Western data) [1, 4]: C (“C” indicates an EC30 ≧ 12.01 μM)
CNCCN(C)Cc1c[nH]nc1-c1ccccc1NS(C)(=O)=O [Compound 41]	–	–	EC30 (In Cell Western data) [1, 4]: C (“C” indicates an EC30 ≧ 12.01 μM)
CNCCN(C)Cc1c[nH]nc1-c1cccc(NC(C)=O)c1 [Compound 42]	–	–	EC30 (In Cell Western data) [1, 4]: C (“C” indicates an EC30 ≧ 12.01 μM)
CNCCN(C)Cc1c[nH]nc1-c1cccc(C(C)=O)c1 [Compound 44]	–	–	EC30 (In Cell Western data) [1, 4]: C (“C” indicates an EC30 ≧ 12.01 μM)
CNCCN(C)Cc1c[nH]nc1-c1ccc(-c2ccccc2)cc1 [Compound 47]	–	–	EC30 (In Cell Western data) [1, 4]: A (“A” indicates an EC30 ≦ 3.00 μM); EC30 (In Cell Western data, Numerical, μM) ([1]; RKO cells, 72 hours, mono-methyl arginine, percent activation, single experiment or average of multiple experiments): 0.104 µM
CC(C)Oc1ccc(-c2n[nH]cc2CN(C)CCN)cc1 [Compound 67]	–	0.507 µM	–
CN(CCN)Cc1c[nH]nc1-c1cccc(C#N)c1 [Compound 70]	200 nM	> 20 µM	–
CN(CCN)Cc1cn(C2COC2)nc1-c1ccc(F)cc1 [Compound 77]	215 nM	–	EC30 [1, 3]: 12.5 µM
CN(CCN)Cc1cnn(C2COC2)c1-c1ccc(F)cc1 [Compound 81]	435 nM	> 20 µM	–
CN(CCN)Cc1nn(C)cc1-c1ccc(C#N)cc1 [Compound 83]	30.3 nM	6.75 µM	–
CN(CCN)Cc1c[nH]nc1-c1ccc(C(F)(F)F)cc1C(F)(F)F [Compound 85]	234 nM	–	EC30 [1, 3]: > 20 µM
CN(CCN)Cc1c[nH]nc1-c1ccc(Cl)cc1Cl [Compound 86]	24 nM	5.63 µM	–
COc1ccc(-c2n[nH]cc2CN(C)CCN)c(OC)c1 [Compound 87]	172 nM	> 20 µM	–
Cc1ccc(-c2n[nH]cc2CN(C)CCN)c(C)c1 [Compound 88]	128 nM	14.5 µM	–
Cc1ccc(-c2n[nH]cc2CN(C)CCN)c(Cl)c1 [Compound 90]	41.3 nM	10.4 µM	–
Cc1ccc(Cl)c(-c2n[nH]cc2CN(C)CCN)c1 [Compound 91]	272 nM	> 20 µM	–
CC(C)Oc1ccc(-c2n[nH]cc2CN(C)CCN)cc1Cl [Compound 168]	–	0.066 µM	–

Second part, led by results:

IC50 (human PRMT1)	SMILES	EC30 [1, 2]	also measured
58.1 nM	CN(CCN)Cc1cn(C)nc1-c1ccc(F)cc1 [Compound 3]	16.2 µM	–
1190 nM	COCCn1cc(CN(C)CCN)c(-c2ccc(F)cc2)n1 [Compound 5]	> 20 µM	–
51.1 nM	CN(CCN)Cc1n[nH]cc1-c1ccc(F)cc1 [Compound 69]	7.99 µM	–
18.8 nM	CN(CCN)Cc1c[nH]nc1-c1cccc(F)c1 [Compound 71]	3.72 µM	–
278 nM	CN(CCN)Cc1c[nH]nc1-c1ccccc1F [Compound 72]	–	–
126 nM	CN(CCN)Cc1c[nH]nc1-c1ccccc1 [Compound 73]	14.7 µM	–
14.9 nM	CN(CCN)Cc1c[nH]nc1-c1ccc(C(C)(C)C)cc1 [Compound 74]	6.34 µM	–
616 nM	CC(C)N(CCN)Cc1c[nH]nc1-c1ccc(F)cc1 [Compound 75]	> 20 µM	–
328 nM	NCCN(Cc1c[nH]nc1-c1ccc(F)cc1)C1CC1 [Compound 78]	10.6 µM	–
96.1 nM	CN(CCN)Cc1c[nH]nc1-c1ccc(N2CCNCC2)cc1 [Compound 82]	> 20 µM	–
67.4 nM	CN(CCN)Cc1c[nH]nc1-c1ccc(F)cc1Cl [Compound 89]	11 µM	–
5.69 nM	CN(CCN)Cc1c[nH]nc1-c1ccc(C(F)(F)F)cc1 [Compound 92]	0.956 µM	–
4.64 nM	CN(CCN)Cc1c[nH]nc1-c1ccc(OC(F)(F)F)cc1 [Compound 93]	1.11 µM	–
7.97 nM	CN(CCN)Cc1c[nH]nc1-c1ccc(OC(F)F)cc1 [Compound 94]	1.78 µM	–
7.84 nM	CN(CCN)Cc1c[nH]nc1-c1ccc(Cl)cc1 [Compound 95]	1.23 µM	–
